Source: the supplement of paper PMC10627819

Key:
Assay in all cases: fitness (endpoint OD595 vs no drug) (fraction); higher = more growth
S. aureus DSM 20231 = test system: S. aureus DSM 20231
Procedure, shortened: (§1)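 Fitness is computed from the optical density at which cultures reach stationary phase, divided by the robust mean of no-drug control wells. Any value above 1 is set to 1. Cultures started at OD595 0.01 in 384-well plates with TSB, LB Lennox or CY at 37 °C, and OD595 was read every 30 min for 14 h against a first-reading background.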

S. pneumoniae D39V = test system: S. pneumoniae D39V
Procedure, shortened: as §1

B. subtilis 168 = test system: B. subtilis 168
Procedure, shortened: as §1
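Note: OD595 on entry to stationary phase over no-drug wells; at most 1.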

CN(C)[C@@H]1C(O)=C(C(N)=O)C(=O)[C@@]2(O)C(O)=C3C(=O)c4c(O)ccc(Cl)c4[C@@](C)(O)[C@H]3C[C@@H]12 [Chlortetracycline] + C[C@@H]1O[C@@H]1P(=O)(O)O [Fosfomycin]
S. aureus DSM 20231, first compound 0.006 µg/mL, one replicate
Details | fitness
partner 0.781 µg/mL | 0.609
partner 1.562 µg/mL | 0.47
partner 3.124 µg/mL | 0.205

Details | fitness
B. subtilis 168, first compound 0.0475 µg/mL, partner 1.562 µg/mL | 0.713
B. subtilis 168, first compound 0.0475 µg/mL, partner 3.124 µg/mL | 0.636
B. subtilis 168, first compound 0.0475 µg/mL, partner 6.248 µg/mL | 0.498
B. subtilis 168, first compound 0.095 µg/mL, partner 1.562 µg/mL | 0.629
B. subtilis 168, first compound 0.095 µg/mL, partner 3.124 µg/mL | 0.557
B. subtilis 168, first compound 0.095 µg/mL, partner 6.248 µg/mL | 0.408
B. subtilis 168, first compound 0.19 µg/mL, partner 3.124 µg/mL | 0.336
B. subtilis 168, first compound 0.19 µg/mL, partner 6.248 µg/mL | 0.19
S. aureus DSM 20231, first compound 0.012 µg/mL, partner 0.781 µg/mL | 0.309
S. aureus DSM 20231, first compound 0.012 µg/mL, partner 1.562 µg/mL | 0.145
S. aureus DSM 20231, first compound 0.012 µg/mL, partner 3.124 µg/mL | 0.0645
S. aureus DSM 20231, first compound 0.024 µg/mL, partner 0.781 µg/mL | 0.154
S. aureus DSM 20231, first compound 0.024 µg/mL, partner 1.562 µg/mL | 0.0553
S. aureus DSM 20231, first compound 0.024 µg/mL, partner 3.124 µg/mL | 0.0457
S. aureus DSM 20231, first compound 0.048 µg/mL, partner 0.781 µg/mL | 0.0506
S. aureus DSM 20231, first compound 0.048 µg/mL, partner 1.562 µg/mL | 0.0192
S. aureus DSM 20231, first compound 0.048 µg/mL, partner 3.124 µg/mL | 0.0143
S. pneumoniae D39V, first compound 0.012 µg/mL, partner 1.25 µg/mL | 0.936
S. pneumoniae D39V, first compound 0.012 µg/mL, partner 2.5 µg/mL | 0.881
S. pneumoniae D39V, first compound 0.012 µg/mL, partner 5 µg/mL | 0.777
S. pneumoniae D39V, first compound 0.024 µg/mL, partner 1.25 µg/mL | 0.629
S. pneumoniae D39V, first compound 0.024 µg/mL, partner 2.5 µg/mL | 0.625
S. pneumoniae D39V, first compound 0.024 µg/mL, partner 5 µg/mL | 0.628
S. pneumoniae D39V, first compound 0.048 µg/mL, partner 1.25 µg/mL | 0.303
S. pneumoniae D39V, first compound 0.048 µg/mL, partner 2.5 µg/mL | 0.31
S. pneumoniae D39V, first compound 0.048 µg/mL, partner 5 µg/mL | 0.319
S. pneumoniae D39V, first compound 0.375 µg/mL, partner 1.25 µg/mL | 0.045
S. pneumoniae D39V, first compound 0.375 µg/mL, partner 2.5 µg/mL | 0.0463
S. pneumoniae D39V, first compound 0.375 µg/mL, partner 5 µg/mL | 0.0538
S. pneumoniae D39V, first compound 0.75 µg/mL, partner 1.25 µg/mL | 0.0544
S. pneumoniae D39V, first compound 0.75 µg/mL, partner 2.5 µg/mL | 0.0368
S. pneumoniae D39V, first compound 0.75 µg/mL, partner 5 µg/mL | 0.0501
S. pneumoniae D39V, first compound 1.5 µg/mL, partner 1.25 µg/mL | 0.0742
S. pneumoniae D39V, first compound 1.5 µg/mL, partner 2.5 µg/mL | 0.0712
S. pneumoniae D39V, first compound 1.5 µg/mL, partner 5 µg/mL | 0.0865

CN(C)[C@@H]1C(O)=C(C(N)=O)C(=O)[C@@]2(O)C(O)=C3C(=O)c4c(O)ccc(Cl)c4[C@@](C)(O)[C@H]3C[C@@H]12 [Chlortetracycline] + CCC[C@@H]1C[C@@H](C(=O)N[C@@H]([C@H]2O[C@H](SC)[C@H](O)[C@@H](O)[C@H]2O)[C@@H](C)O)N(C)C1 [Lincomycin]
one replicate
Details | fitness
B. subtilis 168, first compound 0.0475 µg/mL, partner 0.8 µg/mL | 0.845
B. subtilis 168, first compound 0.0475 µg/mL, partner 1.6 µg/mL | 0.761
B. subtilis 168, first compound 0.095 µg/mL, partner 0.8 µg/mL | 0.692
B. subtilis 168, first compound 0.095 µg/mL, partner 1.6 µg/mL | 0.5
B. subtilis 168, first compound 0.19 µg/mL, partner 0.8 µg/mL | 0.0991
B. subtilis 168, first compound 0.19 µg/mL, partner 1.6 µg/mL | 0.0613
S. aureus DSM 20231, first compound 0.006 µg/mL, partner 0.1 µg/mL | 0.712
S. aureus DSM 20231, first compound 0.006 µg/mL, partner 0.2 µg/mL | 0.483
S. aureus DSM 20231, first compound 0.006 µg/mL, partner 0.4 µg/mL | 0.203

Details | fitness
B. subtilis 168, first compound 0.0475 µg/mL, partner 0.1 µg/mL | 0.87
B. subtilis 168, first compound 0.0475 µg/mL, partner 0.2 µg/mL | 0.862
B. subtilis 168, first compound 0.0475 µg/mL, partner 0.4 µg/mL | 0.85
B. subtilis 168, first compound 0.095 µg/mL, partner 0.1 µg/mL | 0.805
B. subtilis 168, first compound 0.095 µg/mL, partner 0.2 µg/mL | 0.817
B. subtilis 168, first compound 0.095 µg/mL, partner 0.4 µg/mL | 0.803
B. subtilis 168, first compound 0.19 µg/mL, partner 0.1 µg/mL | 0.648
B. subtilis 168, first compound 0.19 µg/mL, partner 0.2 µg/mL | 0.489
B. subtilis 168, first compound 0.19 µg/mL, partner 0.4 µg/mL | 0.406
S. aureus DSM 20231, first compound 0.012 µg/mL, partner 0.1 µg/mL | 0.472
S. aureus DSM 20231, first compound 0.012 µg/mL, partner 0.2 µg/mL | 0.259
S. aureus DSM 20231, first compound 0.012 µg/mL, partner 0.4 µg/mL | 0.0974
S. aureus DSM 20231, first compound 0.024 µg/mL, partner 0.1 µg/mL | 0.233
S. aureus DSM 20231, first compound 0.024 µg/mL, partner 0.2 µg/mL | 0.104
S. aureus DSM 20231, first compound 0.024 µg/mL, partner 0.4 µg/mL | 0.0491
S. aureus DSM 20231, first compound 0.048 µg/mL, partner 0.1 µg/mL | 0.0441
S. aureus DSM 20231, first compound 0.048 µg/mL, partner 0.2 µg/mL | 0.0385
S. aureus DSM 20231, first compound 0.048 µg/mL, partner 0.4 µg/mL | 0.0333
S. pneumoniae D39V, first compound 0.012 µg/mL, partner 0.215 µg/mL | 0.802
S. pneumoniae D39V, first compound 0.012 µg/mL, partner 0.43 µg/mL | 0.716
S. pneumoniae D39V, first compound 0.012 µg/mL, partner 0.86 µg/mL | 0.268
S. pneumoniae D39V, first compound 0.024 µg/mL, partner 0.215 µg/mL | 0.769
S. pneumoniae D39V, first compound 0.024 µg/mL, partner 0.43 µg/mL | 0.666
S. pneumoniae D39V, first compound 0.024 µg/mL, partner 0.86 µg/mL | 0.246
S. pneumoniae D39V, first compound 0.048 µg/mL, partner 0.215 µg/mL | 0.636
S. pneumoniae D39V, first compound 0.048 µg/mL, partner 0.43 µg/mL | 0.426
S. pneumoniae D39V, first compound 0.048 µg/mL, partner 0.86 µg/mL | 0.222
S. pneumoniae D39V, first compound 0.375 µg/mL, partner 0.2 µg/mL | 0.0295
S. pneumoniae D39V, first compound 0.375 µg/mL, partner 0.4 µg/mL | 0.0454
S. pneumoniae D39V, first compound 0.375 µg/mL, partner 0.8 µg/mL | 0.0386
S. pneumoniae D39V, first compound 0.75 µg/mL, partner 0.2 µg/mL | 0.0393
S. pneumoniae D39V, first compound 0.75 µg/mL, partner 0.4 µg/mL | 0.0417
S. pneumoniae D39V, first compound 0.75 µg/mL, partner 0.8 µg/mL | 0.0458
S. pneumoniae D39V, first compound 1.5 µg/mL, partner 0.2 µg/mL | 0.0273
S. pneumoniae D39V, first compound 1.5 µg/mL, partner 0.4 µg/mL | 0.035
S. pneumoniae D39V, first compound 1.5 µg/mL, partner 0.8 µg/mL | 0.0234
